From patent US6338963B1, “Use of carbon monoxide dependent guanylyl cyclase modifiers to stimulate neuritogenesis” (NeoTherapeutics, Inc., priority 1994, dated 2002)
Marks after values point to notes of the source that are not given here.

Columns and labels:
rats = conditions: oral or intraperitoneal route, preliminary
mice = assay: Home cage locomotor activity; type: in vivo
Procedure: To measure home cage locomotor activity, the home cage was placed on a platform of an activity monitor (Stoelting Instruments). Home cage locomotor activity movements were recorded at one minute intervals for 15 minutes. Subjects received saline or AIT-082 and were returned to their home cages. Ten minutes after injection, the home cage was replaced on the platform of the activity monitor. Home cage locomotor activity movements were recorded at one minute intervals for 30 minutes. During the first five minutes, grooming activity was also monitored and recorded.

[1] = Plasma levels of AIT-082 in mice (HPLC); type: in vivo; conditions: 30 mg/kg i.p., C57BL/6 mice, estimated
Procedure: Adult C57BL/6 mice were administered 30 mg/kg of AIT-082 in saline i.p. The animals were sacrificed by decapitation at […] after administration of AIT-082. Blood was collected in heparinized tubes, mixed and centrifuged at 2000 rpm for 15 minutes. The plasma supernatant was removed and stored at −70° C. until analysis. A high pressure liquid chromatography system was developed for the analytical measurement of AIT-082 in plasma and brain tissue. The assay developed was selective for AIT-082 in the presence of a number of closely related purine molecules. The sensitivity of the method was 0.1 microgram of AIT-082 per ml of plasma and 0.1 microgram of AIT-082 per milligram of brain tissue (wet weight).
The results of these determinations graphically represented in FIG. 1 where plasma levels of AIT-082 are provided at 5, 10, 15, 20, 30, 60, 90, and 120 minutes after administration of 30 mg/kg i.p. to C57BL/6 mice. From the data, it was estimated that the blood level of AIT-082 reached its peak at approximately 15 minutes.

Swiss Webster mice = assay: Win-shift test, Swiss Webster mice with age-induced memory deficits; type: in vivo; conditions: AIT-082 30 mg/kg
Procedure: Twelve-month old male Swiss Webster mice were screened for performance in the win-shift foraging test. Subjects were tested at various time delays, beginning at 10 seconds and increasing the inter-trial time interval to 30, 60, 90 and 120 seconds.
Subjects with severe impairment could not remember the correct response at 10 seconds while subjects with mild deficit could remember the correct response with a 30 second inter-trial interval but not at 60 seconds. Subjects with a moderate deficit could remember the correct response with a 10 second inter-trial interval but not […] at 30 seconds. Thus, the win-shift model can detect age-induced impairments in working memory. As will be appreciated by those skilled in the art, this observation is important since it provides the ability to use age-matched subjects with varying degrees of impairment for evaluation of potential therapeutic agents.
Following the establishment of a baseline, six subjects in each of the three groups were treated with AIT-82 (30 mg/kg, one hour before testing) or physostigmine (0.125 mg/kg, 30 minutes before testing) using the win-shift foraging test. The results are presented in Table L directly below and graphically represented in FIG. 9.

bFGF = assay: Summary of effects on growth factor mRNA and protein (Table R): bFGF; parameters: key: ± = mRNA; + = protein; nt = not tested
Source text: (§1) The constellation of effects of AIT-082 on production of mRNA encoding growth factors and on production of growth factor proteins is shown in Table R. The results summarized in […] show both transcriptional and translational effects on growth factors that are in the categories of neurotrophins, pleiotrophins, members of the S100 family of EF hand calcium binding proteins, and members of the TGFβ superfamily. As indicated, effects have been shown at both the mRNA (transcriptional) and protein (translational) levels.

NT-3 = assay: Summary of effects on growth factor mRNA and protein (Table R): NT-3; parameters: key: ± = mRNA; + = protein; nt = not tested
Source text: as §1

[2] = system: cultured rat hippocampal neurons; assay: NMDA-induced toxicity in cultured rat hippocampal neurons, astrocyte conditioned medium
Procedure: To determine whether or not AIT-082 afforded in vitro neuroprotection, the effect of AIT-082 on toxicity induced by N-methyl-D-aspartate (NMDA) in cultured rat hippocampal neurons was studied.
To determine whether AIT-082 protected against neuronal toxicity induced by NMDA, and whether astrocytes might be involved, cultured astrocytes were exposed to AIT-082 for 6 hr. The drug was then removed and cultures were kept in fresh medium for the following 20 hr. This conditioned medium was then added to primary cultures of rat hippocampal neurons on the seventh day in vitro, immediately after they had been exposed to a toxic pulse of NMDA.
It was next evaluated whether the addition of conditioned medium (CM) deriving from astrocyte cultures treated with 100 μM AIT-082 generated protection against damage induced by a toxic pulse with 100 μM NMDA in cultured neurons.
The effects of NMDA are shown in FIG. 66A on cortical cells and in FIG. 66B for hippocampal cells.

BDNF = assay: Summary of effects on growth factor mRNA and protein (Table R): BDNF; parameters: key: ± = mRNA; + = protein; nt = not tested
Source text: as §1

BDNF mRNA = assay: RT-PCR of growth factor mRNA after T8 spinal cord hemisection: BDNF; type: in vivo, Wistar rats

In the case of `O=C(CCn1cnc2c(=O)[nH]cnc21)Nc1ccc(C(=O)O)cc1` [AIT-082, N-4-carboxyphenyl-3-(6-oxohydropurin-9-yl)propanamide], the LD50 (rats) is reported as greater than 3000 mg/kg, the “Locomotor activity, Movements (mean ± S.D.) Post-drug” value (mice; AIT dose 0.005 mg/kg) is reported as 1375 ± 563 and the “Locomotor activity, Movements (mean ± S.D.) Difference” value (mice; AIT dose 0.005 mg/kg, pre-drug minus post-drug) is reported as 509 ± 429. The “Locomotor activity, Movements (mean ± S.D.) Difference” value (mice; AIT dose 0.05 mg/kg) was 209 ± 340, the “Locomotor activity, Movements (mean ± S.D.) Post-drug” value (mice; AIT dose 0.05 mg/kg) was 1508 ± 456 and the “Locomotor activity, Movements (mean ± S.D.) Difference” value (mice; AIT dose 0.5 mg/kg) was 290 ± 435. For the same compound, the “Locomotor activity, Movements (mean ± S.D.) Post-drug” value (mice; AIT dose 0.5 mg/kg) was 1320 ± 689, the “Locomotor activity, Movements (mean ± S.D.) Difference” value (mice; AIT dose 30.0 mg/kg) was 342 ± 267 and the “Locomotor activity, Movements (mean ± S.D.) Post-drug” value (mice; AIT dose 30.0 mg/kg) was 1098 ± 189. For the same compound, the “time at which blood level of AIT-082 reached its peak” value [1] was “approximately 15 minutes”, the “subjects performing significantly above chance/total number of subjects” value (Swiss Webster mice; Mild deficit, interval 60 sec) was 6/6* and the “subjects performing significantly above chance/total number of subjects” value (Swiss Webster mice; Mild deficit, interval 90 sec) was 4/6. The “subjects performing significantly above chance/total number of subjects” value (Swiss Webster mice; Mild deficit, interval 120 sec) was 2/6, the “subjects performing significantly above chance/total number of subjects” value (Swiss Webster mice; Mild deficit, interval 150 sec) was 1/6 and the “subjects performing significantly above chance/total number of subjects” value (Swiss Webster mice; Mild deficit, interval 180 sec) was 1/6. For the same compound, the “subjects performing significantly above chance/total number of subjects” value (Swiss Webster mice; Mild deficit, interval 210 sec) was 0/6, the “subjects performing significantly above chance/total number of subjects” value (Swiss Webster mice; Moderate deficit, interval 30 sec) was 4/6* and the “subjects performing significantly above chance/total number of subjects” value (Swiss Webster mice; Moderate deficit, interval 60 sec) was 2/6. For the same compound, the “subjects performing significantly above chance/total number of subjects” value (Swiss Webster mice; Moderate deficit, interval 90 sec) was 0/6, the “subjects performing significantly above chance/total number of subjects” value (Swiss Webster mice; Severe deficit, interval <10 sec) was 0/6 and the “bFGF, effect on mRNA/protein production” value (bFGF; Aged Brain) was “±”. For the same compound, the “bFGF, effect on mRNA/protein production” value (bFGF; Lesioned Brain) was “±”, the “NT-3, effect on mRNA/protein production” value (NT-3; Aged Brain) was “+” and the “NT-3, effect on mRNA/protein production” value (NT-3; Cultured Cells) was “±”. For the same compound, the “NT-3, effect on mRNA/protein production” value (NT-3; Lesioned Spinal Cord) was “±”, the “NT-3, effect on mRNA/protein production” value (NT-3; Normal Brain) was “+” and the “reduction of cell damage” value ([2]; combination of 100 μM AIT-082 and CM, hippocampal cells, 100 μM NMDA) was 70-80%. The “reduction of the number of dead neurons and the production of LDH caused by NMDA” value ([2]; conditioned medium from astrocytes treated with AIT-082 (50-100 μM) for 6 hr) was 50%, the “BDNF, effect on mRNA/protein production” value (BDNF; Aged Brain) was “+” and the “BDNF, effect on mRNA/protein production” value (BDNF; Lesioned Spinal Cord) was “±”. The “BDNF, effect on mRNA/protein production” value (BDNF; Normal Brain) was “+”, the “BDNF, effect on mRNA/protein production” value (BDNF; Normal Spinal Cord) was “+” and the “BDNF mRNA level” value (BDNF mRNA; at the level of the lesion) was “no significant differences”. The “BDNF mRNA level” value (BDNF mRNA; caudal to lesion, 7 days) was “no significant effects”, the “BDNF mRNA level” value (BDNF mRNA; rostral to lesion, 3 days, 20 mg/kg day in drinking water, sham-operated over lesion animals) was “significantly increased” and the “BDNF mRNA level” value (BDNF mRNA; rostral to lesion, 7 days, lesioned treated vs lesioned not treated) was “significantly higher”.
